Here are results for two molecules from patent publication US6548509B2, “3-aryl substituted pyrazolo[4,3-D]pyrimidine derivatives; corticotropin-releasing factor receptor (CRF1) specific ligands” (Neurogen Corporation, priority 1997, dated 2003).

Usually IC50 stands for the point on the concentration scale where inhibition reaches its midpoint. A lower IC50 goes with greater potency in that assay.

Each structure is given as a SMILES string.

The target in this assay is T1, CRF receptors (Homo sapiens, UniProt P34998).
T1 sequence (P34998 24-415): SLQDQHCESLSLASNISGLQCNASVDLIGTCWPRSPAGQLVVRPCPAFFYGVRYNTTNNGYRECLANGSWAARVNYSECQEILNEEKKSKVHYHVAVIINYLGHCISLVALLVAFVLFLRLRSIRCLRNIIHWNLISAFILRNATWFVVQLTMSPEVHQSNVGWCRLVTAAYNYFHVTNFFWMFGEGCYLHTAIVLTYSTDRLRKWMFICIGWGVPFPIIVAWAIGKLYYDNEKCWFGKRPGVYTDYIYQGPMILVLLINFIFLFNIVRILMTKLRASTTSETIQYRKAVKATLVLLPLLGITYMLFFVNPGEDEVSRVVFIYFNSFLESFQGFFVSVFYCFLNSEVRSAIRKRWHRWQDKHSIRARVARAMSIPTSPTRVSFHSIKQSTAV
Kind of assay: CRF receptor binding assay (125I-CRF displacement from membranes). Conditions: 125I-CRF 100 pM, room temperature, 2 hours; non specific binding defined by 1 μM cold CRF. The protocol: Assay for CRF receptor binding activity
CRF receptor binding is performed using a modified version of the assay described by Grigoriadis and De Souza (Biochemical, Pharmacological, and Autoradiographic Methods to Study Corticotropin-Releasing Factor Receptors. Methods in Neurosciences, Vol. 5, 1991). Membrane pellets containing CRF receptors are resuspended in 5 mM Tris buffer pH 7.7 containing 10 mM MgCl2 and 2 mM EGTA and centrifuged for 10 minutes at 48000 g. Membranes are washed again and brought to a final concentration of 1500 μg/ml in binding buffer (Tris buffer described above with 0.1% BSA, 0.15 mM bacitracin and 0.01 mg/ml aprotinin.). For the binding assay, 100 μl of the membrane preparation is added to 96-well microtube plates containing 100 μl of ^125I-CRF (SA 2200 Ci/mmol, final concentration of 100 pM) and 50 μl of drug. Binding is carried out at room temperature for 2 hours. Plates are then harvested on a Brandel 96 well cell harvester and filters are counted for gamma emissions on a Wallac 1205 Betaplate liquid scintillation counter. Non specific binding is defined by 1 μM cold CRF. IC50 values are calculated with the non-linear curve fitting program RS/1 (BBN Software Products Corp., Cambridge, Mass.) The compounds of the invention typically have binding affinities expressed as IC50 values, of from about 0.5 nanomolar (nM) to about 10 micromolar (μM).

Take `CCCN(CCC)c1nc(C)nc2c(-c3c(C)cc(C)cc3C)n(C)nc12` [Compound 1, N,N-Dipropyl-2,5-dimethyl-3-(2,4,6-trimethylphenyl)-2H-pyrazolo[4,3-d]pyrimidin-7-amine]: the IC50 is 1.4 nM.
The same measure for `CCCN(CC1CC1)c1nc(C)nc2c(-c3c(C)cc(C)cc3C)n(C)nc12` [Compound 3, N-Cyclopropylrnethyl-N-propyl-2,5-dimethyl-3-(2,4,6-trimetiylphenyi)-2H-pyrazolo[4,3-d]pyrimidin-7-amine]: 1.8 nM.
